# Laboratory results: patent US11891642B2, “Biocatalytic techniques” (HYPHA DISCOVERY LIMITED, priority 2018, dated 2024)
# Experiments:
# [1] = test system: R63W mutant of codon optimised P450SriC12; assay: Cell-free hydroxylase/dealkylase assay, lyophilised extract incubated with bosentan, UPLC-MS; assay type: biochemical, Streptomyces rimosus NRRL-2234; details: 0.1 mg/ml bosentan, 27° C., 16-20 hours
# Experimental: (§1) Lyophilised material of recombinant P450, ferredoxin and ferredoxin reductase proteins was made as described in Example 3 and reconstituted in high purity water to 90% the original volume. Biocatalysis was performed at 27° C. in the following conditions: 50 mM potassium phosphate pH 7.4, 5 mM MgCl2, 0.1 mg/ml substrate compound such as bosentan, cyclosporine A, diclofenac, ritonavir, tivantinib, valsartan or vanoxerine, native concentration of P450, ferredoxin and ferredoxin reductase as extracted (Example 3). Reactions were initiated by addition of 10× stock of cofactor mixture (50 mM G6P, 10 mM NADP, 10 UN/ml G6PDH) to provide a final volume of e.g., 100 μL. After 16-20 hours, reactions were extracted with an equal volume of acetonitrile, centrifuged to remove precipitated proteins and conversion assessed by UPLC-MS analysis.
# (§2) Acidic Analysis Conditions • Column: Acquity UPLC BEH Shield RP18 1.7 μm 2.1 mm i.d. 50 mm length • Column temperature: 45° C. • Solvents: H2O, B: Acetonitrile, both with 0.1% Formic acid • Flow rate: 1.0 ml/min • Gradient (A9%/B %): t=0 mins: 98/2 to 2/98 at t=2.4 mins and held for a further 0.4 mins (2.8 mins total), return to 98/2 over 0.05 mins and re-equilibrated for 0.15 mins (t=3 mins) at a flow-rate of 1.0 mL/min.
# (§3) Basic Analysis Conditions • Column: Waters Acquity UPLC BEH C18 1.7 μm 2.1 mm i.d. 50 mm length • Column temperature: 45° C. • Solvents: A: 10 mM ammonium bicarbonate in H2O, B: Acetonitrile • Gradient (A %/B %): t=0 mins: 98/2 to 2/98 at t=2.4 mins and held for a further 0.4 mins (2.8 mins total), return to 98/2 over 0.05 mins and re-equilibrated for 0.15 mins (t=3 mins) at a flow-rate of 1.0 mL/min. • Detector: Waters Acquity UPLC PDA (UV-Vis detection) and Waters Acquity UPLC QDA (MS)
# (§4) The resulting plasmids containing the new mutants genes were transformed into recombinant E. coli strains for expression as described in Example 1, cultured and induced as described in Example 2, extracted and processed as described in Example 3 and tested for biocatalytic activity as described in Example 5 above.
# [2] = test system: native codon optimised P450SriC12; assay: as above; assay type: biochemical, Streptomyces rimosus NRRL-2234; details: 0.1 mg/ml bosentan, 27° C., 16-20 hours
# Experimental: as §1, §2, §3, §4
# [3] = test system: P450SriC12-ferredoxinSriF05-ferredoxin reductaseSCF15A expressed in S. lividans HD002; assay: Whole-cell biotransformation of ritonavir in 24-well block format; assay type: cell-based, Streptomyces rimosus NRRL-2234; details: for +16 Da (1.67 min) / +16 Da (1.72 min) / +16 Da (1.76 min) / Parent (1.90 min): ritonavir 100 mg/L
# Experimental: (§5) Approximately 10^8 cells of S. lividans HD000 and S. lividans […] inoculated separately into 50 mL of culture medium (containing 5 g/L glycerol; 20 g/L glucose; 5 g/L yeast extract peptone; 2 g/L meat extract; 5 g/L mycological peptone; 1 g/L ammonium phosphate dibasic; 3 g/I sodium chloride; 0.3 g/L magnesium sulphate heptahydrate and 3.5 g/L calcium carbonate, adjusted to pH 7.0 and sterilised at 115° C. for 15 minutes) in 250 mL baffled flasks and incubated shaking at 27° C., 200 rpm for 48 hours. In a 24-well micro-bioreactor block (EnzyScreen, Netherlands), 2.5 mL of S. lividans HD000 and S. lividans HD002 were dosed with ritonavir at a concentration of 100 mg/L. Ritonavir was formulated with 20% hydroxypropyl-p-cyclodextrin (prepared via 1 in 25 dilution of a stock solution of 25 mg ritonavir in 1 mL DMSO). Cultures were time-coursed daily after dosing to assess the production of the target metabolite hydroxy-ritonavir as in Example 5.
# (§6) Conversions of ritonavir improved with longer incubations with the drug.
# [4] = test system: S. lividans HD000 negative control; assay: Whole-cell biotransformation of ritonavir in 24-well block format, empty-vector strain; assay type: cell-based, Streptomyces lividans; details: for +16 Da (1.67 min) / +16 Da (1.72 min) / +16 Da (1.76 min) / Parent (1.90 min): ritonavir 100 mg/L
# Experimental: As a negative control, an empty plJ12551 expression vector was introduced into S. lividans TK24 by triparental conjugation as described above and designated as S. lividans […].
# as §5, §6
compound,measurement,setting,value
COc1ccccc1Oc1c(NS(=O)(=O)c2ccc(C(C)(C)C)cc2)nc(-c2ncccn2)nc1OCCO [bosentan],hydroxy-bosentan product,[1],no hydroxy-bosentan product was detected
same,yield of the O-demethyl-bosentan product,[1],63.2%
same,yield of the O-demethyl-bosentan product,[2],3.3%
CC(C)c1nc(CN(C)C(=O)N[C@H](C(=O)N[C@@H](Cc2ccccc2)C[C@H](O)[C@H](Cc2ccccc2)NC(=O)OCc2cncs2)C(C)C)cs1 [ritonavir],+16 Da (1.67 min),[3]; sampling 24 hour,7.1%
same,+16 Da (1.72 min),[3]; sampling 24 hour,18.9%
same,+16 Da (1.76 min),[3]; sampling 24 hour,1.4%
same,Parent (1.90 min),[3]; sampling 24 hour,68.5%
same,+16 Da (1.67 min),[3]; sampling 48 hour,8.6%
same,+16 Da (1.72 min),[3]; sampling 48 hour,23.6%
same,+16 Da (1.76 min),[3]; sampling 48 hour,2.8%
same,Parent (1.90 min),[3]; sampling 48 hour,58.6%
same,+16 Da (1.67 min),[3]; sampling 120 hour,9.1%
same,+16 Da (1.72 min),[3]; sampling 120 hour,28.1%
same,+16 Da (1.76 min),[3]; sampling 120 hour,1.4%
same,Parent (1.90 min),[3]; sampling 120 hour,51.2%
same,hydroxylation of ritonavir (in words),[3]; whole-cell biotransformation,able to hydroxylate ritonavir
same,+16 Da (1.67 min),[4]; sampling 24 hour,0.0%
same,+16 Da (1.72 min),[4]; sampling 24 hour,0.0%
same,+16 Da (1.76 min),[4]; sampling 24 hour,0.0%
same,Parent (1.90 min),[4]; sampling 24 hour,100.0%
same,+16 Da (1.67 min),[4]; sampling 48 hour,0.0%
same,+16 Da (1.72 min),[4]; sampling 48 hour,0.0%
same,+16 Da (1.76 min),[4]; sampling 48 hour,0.0%
same,Parent (1.90 min),[4]; sampling 48 hour,100.0%
same,+16 Da (1.67 min),[4]; sampling 120 hour,0.0%
same,+16 Da (1.72 min),[4]; sampling 120 hour,0.0%
same,+16 Da (1.76 min),[4]; sampling 120 hour,0.0%
same,Parent (1.90 min),[4]; sampling 120 hour,100.0%
same,hydroxylation of ritonavir (in words),[4]; whole cells,unable to hydroxylate ritonavir
